What was measured:
IKZF1 = biological target: T1, IKZF1 (Homo sapiens, UniProt Q13422+Q96SW2); assay: Flow cytometry for measuring degradation, HEK293T GFP-POI reporter cells (IKZF1); assay type: cell-based; settings: for IKZF1% degradation at 100 nM / IKZF1% degradation at 1 μM: 24 h, HEK293T GFP reporter; for Dmax: HEK-293T
T1 construct: expressed in transfected cells; host or cells: HEK293T (lentiviral transduction, puromycin selection, FACS sorting)

IKZF2 = biological target: T2, IKZF2 (Homo sapiens, UniProt Q96SW2+Q9UKS7); assay: Flow cytometry for measuring degradation, HEK293T GFP-POI reporter cells (IKZF2); assay type: cell-based; settings: for IKZF2% degradation at 100 nM / IKZF2% degradation at 1 μM: 24 h, HEK293T GFP reporter; for Dmax: HEK-293T; for Dmax / DC50: Table 3
T2 construct: expressed in transfected cells; host or cells: HEK293T (lentiviral transduction, puromycin selection, FACS sorting)
T2 sequence (Q9UKS7 whole entry): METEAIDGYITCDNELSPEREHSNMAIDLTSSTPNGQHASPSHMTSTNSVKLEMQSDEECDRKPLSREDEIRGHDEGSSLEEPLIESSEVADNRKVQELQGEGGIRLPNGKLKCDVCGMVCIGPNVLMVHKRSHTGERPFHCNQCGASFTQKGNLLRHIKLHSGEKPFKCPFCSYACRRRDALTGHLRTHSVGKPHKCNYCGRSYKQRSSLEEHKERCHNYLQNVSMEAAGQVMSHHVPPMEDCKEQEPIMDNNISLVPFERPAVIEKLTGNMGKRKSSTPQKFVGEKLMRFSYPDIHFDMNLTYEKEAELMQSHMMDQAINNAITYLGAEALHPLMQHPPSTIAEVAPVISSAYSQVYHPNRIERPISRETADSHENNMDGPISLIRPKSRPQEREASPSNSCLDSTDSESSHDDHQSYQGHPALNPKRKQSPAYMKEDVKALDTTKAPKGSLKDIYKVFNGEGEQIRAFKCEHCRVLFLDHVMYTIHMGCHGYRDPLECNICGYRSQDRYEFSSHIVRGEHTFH
T2 sequence (Q96SW2 whole entry): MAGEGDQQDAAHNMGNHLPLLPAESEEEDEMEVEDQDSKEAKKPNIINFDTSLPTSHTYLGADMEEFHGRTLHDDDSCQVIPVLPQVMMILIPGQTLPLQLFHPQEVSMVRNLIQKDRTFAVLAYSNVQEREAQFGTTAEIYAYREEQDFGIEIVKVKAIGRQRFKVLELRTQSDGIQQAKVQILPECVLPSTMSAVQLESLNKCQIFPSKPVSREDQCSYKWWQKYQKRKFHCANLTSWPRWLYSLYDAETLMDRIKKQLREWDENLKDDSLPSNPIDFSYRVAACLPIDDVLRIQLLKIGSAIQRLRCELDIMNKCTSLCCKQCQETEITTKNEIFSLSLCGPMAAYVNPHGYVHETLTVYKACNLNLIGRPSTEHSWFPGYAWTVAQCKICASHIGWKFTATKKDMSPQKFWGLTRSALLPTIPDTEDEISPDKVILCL
T2 sequence (Q16531 whole entry partner): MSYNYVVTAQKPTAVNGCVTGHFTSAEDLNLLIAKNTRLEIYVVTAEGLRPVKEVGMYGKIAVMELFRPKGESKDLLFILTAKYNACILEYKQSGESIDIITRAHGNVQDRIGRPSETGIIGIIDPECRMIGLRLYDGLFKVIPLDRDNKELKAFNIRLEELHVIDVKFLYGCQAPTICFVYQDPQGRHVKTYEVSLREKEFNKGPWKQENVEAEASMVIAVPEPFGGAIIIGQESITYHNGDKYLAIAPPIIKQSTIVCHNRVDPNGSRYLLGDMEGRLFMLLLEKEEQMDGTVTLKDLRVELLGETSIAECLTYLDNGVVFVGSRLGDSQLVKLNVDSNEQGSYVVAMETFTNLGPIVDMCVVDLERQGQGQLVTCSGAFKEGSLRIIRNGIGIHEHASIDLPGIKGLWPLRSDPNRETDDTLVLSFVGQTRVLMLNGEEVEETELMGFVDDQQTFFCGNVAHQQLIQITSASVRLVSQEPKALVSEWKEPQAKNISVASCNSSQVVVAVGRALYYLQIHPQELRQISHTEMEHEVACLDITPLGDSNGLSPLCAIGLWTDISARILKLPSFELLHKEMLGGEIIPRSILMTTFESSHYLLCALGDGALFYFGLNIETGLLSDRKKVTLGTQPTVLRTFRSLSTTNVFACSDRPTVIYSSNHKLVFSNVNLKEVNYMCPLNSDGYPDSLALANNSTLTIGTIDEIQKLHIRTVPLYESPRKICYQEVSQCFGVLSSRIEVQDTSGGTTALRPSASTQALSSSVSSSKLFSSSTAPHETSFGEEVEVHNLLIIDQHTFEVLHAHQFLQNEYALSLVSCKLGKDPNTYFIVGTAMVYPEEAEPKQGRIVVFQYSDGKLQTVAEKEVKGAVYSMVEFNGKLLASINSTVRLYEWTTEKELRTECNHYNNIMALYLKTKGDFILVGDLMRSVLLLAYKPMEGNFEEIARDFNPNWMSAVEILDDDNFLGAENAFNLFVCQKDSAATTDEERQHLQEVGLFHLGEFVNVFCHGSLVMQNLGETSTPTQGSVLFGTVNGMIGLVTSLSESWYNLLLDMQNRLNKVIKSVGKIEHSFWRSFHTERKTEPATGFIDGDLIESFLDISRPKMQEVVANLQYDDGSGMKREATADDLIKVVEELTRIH

CK1α = biological target: T3, CK1α (Homo sapiens, UniProt P48729+Q96SW2); assay: Flow cytometry for measuring degradation, HEK293T GFP-POI reporter cells (CK1α); assay type: cell-based; settings: for CK1α % degradation at 100 nM / CK1α % degradation at 1 μM: 24 h, HEK293T GFP reporter; for Dmax: CK1, read-out: Dmax CK1a (%); for Dmax / DC50: Table 3; for DC50: read-out: DC50 CK1a
T3 construct: expressed in transfected cells; host or cells: HEK293T (lentiviral transduction, puromycin selection, FACS sorting)
T3 sequence (P48729 whole entry): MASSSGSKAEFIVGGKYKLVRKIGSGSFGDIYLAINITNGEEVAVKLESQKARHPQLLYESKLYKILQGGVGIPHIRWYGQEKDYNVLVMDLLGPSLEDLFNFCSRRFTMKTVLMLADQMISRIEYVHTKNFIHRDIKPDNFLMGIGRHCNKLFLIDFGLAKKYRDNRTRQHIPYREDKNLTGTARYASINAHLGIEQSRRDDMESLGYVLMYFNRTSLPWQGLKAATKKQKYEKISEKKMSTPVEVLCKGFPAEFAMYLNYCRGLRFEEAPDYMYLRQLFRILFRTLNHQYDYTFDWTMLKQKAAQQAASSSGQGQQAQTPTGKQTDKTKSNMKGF
T3 sequence (Q96SW2 whole entry): as the sequence (Q96SW2 whole entry) above
T3 sequence (Q16531 whole entry partner): as the sequence (Q16531 whole entry partner) above

CK1α and/or IKZF2 = assay: Panel of reporter cell lines (HEK293T cells expressing protein tagged with eGFP), substrate scope; assay type: cell-based; settings: 100 nM or 1 μM
GSPT1 = GSPT1 (Homo sapiens, UniProt P15170+Q96SW2); assay: Flow cytometry for measuring degradation, HEK293T GFP-POI reporter cells (GSPT1); assay type: cell-based; set-up: expressed in transfected cells; host or cells: HEK293T; settings: for GSPT1% degradation at 100 nM / GSPT1% degradation at 1 μM: 24 h, HEK293T GFP reporter; for Dmax: HEK-293T
Chain of GSPT1 (P15170 whole entry): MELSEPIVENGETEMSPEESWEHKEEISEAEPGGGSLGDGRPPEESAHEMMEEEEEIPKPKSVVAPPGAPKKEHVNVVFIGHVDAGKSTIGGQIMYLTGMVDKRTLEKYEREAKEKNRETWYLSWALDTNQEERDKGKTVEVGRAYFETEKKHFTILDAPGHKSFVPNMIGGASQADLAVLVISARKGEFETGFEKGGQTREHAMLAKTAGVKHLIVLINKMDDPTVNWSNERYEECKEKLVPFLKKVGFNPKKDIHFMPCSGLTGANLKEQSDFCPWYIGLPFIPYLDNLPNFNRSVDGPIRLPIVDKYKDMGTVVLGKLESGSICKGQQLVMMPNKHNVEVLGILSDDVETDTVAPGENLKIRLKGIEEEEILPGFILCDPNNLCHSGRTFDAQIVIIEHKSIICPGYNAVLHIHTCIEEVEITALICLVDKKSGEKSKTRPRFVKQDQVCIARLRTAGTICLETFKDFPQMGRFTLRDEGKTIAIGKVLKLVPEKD
Chain of GSPT1 (Q96SW2 whole entry): as the sequence (Q96SW2 whole entry) above
Chain of GSPT1 (Q16531 whole entry partner): as the sequence (Q16531 whole entry partner) above

[1] = In vitro solubility in DMSO; assay type: physicochemical; settings: DMSO, organic solvent or mixture
[2] = test system: endometrioid ovarian cancer cell line A2780; assay: 5-day MTT assay in A2780 cells; assay type: cell-based; settings: A2780, 5-day MTT assay
Protocol: (§1) Viability Assay: 10,000 cells (e.g., MOLM-13 cells, MLL-AF9 leukemic cells or normal BM cells) were plated onto flat-bottom 96-well plates in media with increasing concentration of compound up to […]. […] For measuring viability, Cell-Titer Glo kit (Promega) or MTT kit was used following manufacturer's instructions. For Cell-Titer Glo assay, cells were cooled to room temperature for 20-30 min, 100 μL of the cultured cells were transferred to opaque-white bottom 96-well plates and mixed with 100 μL of Cell-Titer Glo reagent. The mixture was incubated for 15 min at room temperature and read using a Synergy H1 Hybrid reader (BioTek) for luminescence. Data was normalized as percentage viability and graphed by non-linear regression curves in Graph Pad PRISM 7.0.

DLBCL cell line OCI-LY3 = assay: 5-day MTT assay in OCI-LY3 cells; assay type: cell-based; settings: OCI-LY3, 5-day MTT assay
Protocol: as §1

T1 sequence (Q13422 whole entry): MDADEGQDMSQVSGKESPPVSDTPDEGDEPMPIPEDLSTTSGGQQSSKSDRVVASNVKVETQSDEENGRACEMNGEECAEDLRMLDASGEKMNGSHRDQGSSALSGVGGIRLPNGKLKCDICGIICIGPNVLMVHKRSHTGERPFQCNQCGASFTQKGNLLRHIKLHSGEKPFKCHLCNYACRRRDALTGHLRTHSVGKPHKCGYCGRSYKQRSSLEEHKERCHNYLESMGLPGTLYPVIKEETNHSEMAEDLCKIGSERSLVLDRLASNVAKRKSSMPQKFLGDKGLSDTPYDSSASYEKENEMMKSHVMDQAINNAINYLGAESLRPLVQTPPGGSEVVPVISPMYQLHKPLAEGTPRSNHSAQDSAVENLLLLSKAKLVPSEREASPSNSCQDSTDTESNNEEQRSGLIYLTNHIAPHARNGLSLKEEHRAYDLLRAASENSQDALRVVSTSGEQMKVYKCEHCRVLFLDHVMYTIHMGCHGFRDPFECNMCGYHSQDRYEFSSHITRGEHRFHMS
T1 sequence (Q96SW2 whole entry): as the sequence (Q96SW2 whole entry) above
T1 sequence (Q16531 whole entry partner): as the sequence (Q16531 whole entry partner) above

Structure (SMILES)	IKZF1% degradation at 100 nM (IKZF1) [%]	IKZF1% degradation at 1 μM (IKZF1) [%]	IKZF2% degradation at 100 nM (IKZF2) [%]	IKZF2% degradation at 1 μM (IKZF2) [%]	CK1α % degradation at 100 nM (CK1α) [%]	CK1α % degradation at 1 μM (CK1α) [%]	degradation activity for CK1α and/or IKZF2, while sparing IKZF1 and/or GSPT1 (in words) (CK1α and/or IKZF2)	GSPT1% degradation at 100 nM (GSPT1) [%]	GSPT1% degradation at 1 μM (GSPT1) [%]	Dmax (IKZF1; Table 3) [%]	Dmax (IKZF2) [%]	DC50 (IKZF2) [nM]	Dmax (CK1α) [%]	DC50 (CK1α) [nM]	solubility [1] [mM]	Dmax (GSPT1; Table 3) [%]	sensitivity of A2780 cells (in words) [2]	sensitivity of OCI-LY3 cells (in words) (DLBCL cell line OCI-LY3)	DC50 (IKZF1; Table 3) [nM]	DC50 (GSPT1; Table 3) [nM]
O=C1CCC(N2Cc3cc(NC(=O)Cc4cccc5ccccc45)ccc3C2=O)C(=O)N1 (stereo not shown) [DEG-67, N-(2-(2,6-dioxopiperidin-3-yl)-1-oxoisoindolin-5-yl)-2-(naphthalen-1-yl)acetamide]	97.2 ± 0.1	98.1 ± 0.1	92.2 ± 0.1	94.6 ± 0	64.4 ± 0.5	62.8 ± 0.5	good degradation activity	25.3 ± 0.5	30.9 ± 1											
O=C1CCC(N2Cc3cc(NC(=O)c4cc5ccccc5o4)ccc3C2=O)C(=O)N1 (stereo not shown) [DEG-59, N-(2-(2,6-dioxopiperidin-3-yl)-1-oxoisoindolin-5-yl)benzofuran-2-carboxamide]	13.4 ± 0.6	26.5 ± 1.2	79.7 ± 0.1	92 ± 0.1	61.7 ± 2.4	63.3 ± 3.9	good degradation activity	2 ± 3.6	−1 ± 3.4											
O=C(/C=C/c1ccccc1)Nc1ccc2c(c1)CN(C1CCC(=O)NC1=O)C2=O (stereo not shown) [DEG-56, N-(2-(2,6-dioxopiperidin-3-yl)-1-oxoisoindolin-5-yl)cinnamamide]	13.1 ± 0.8	29.4 ± 0.3	70.8 ± 0.3	89.6 ± 0.1	60.2 ± 2.3	67 ± 1.1	good degradation activity	7.6 ± 1.5	11.1 ± 1.3											
O=C1CCC(N2Cc3cc(NC(=O)c4cccc(Oc5ccccc5)c4)ccc3C2=O)C(=O)N1 (stereo not shown) [DEG-55, N-(2-(2,6-dioxopiperidin-3-yl)-1-oxoisindolin-5-yl)-3-phenoxybenzamide]	62.1 ± 0.2	86.8 ± 0.4	73.9 ± 0.4	91.1 ± 0.1	57.6 ± 1.7	67.4 ± 1.4	good degradation activity	8.8 ± 0.8	14 ± 1.8											
O=C1CCC(N2Cc3cc(NC(=O)C4=Cc5ccccc5OC4)ccc3C2=O)C(=O)N1 (stereo not shown) [DEG-52, N-(2-(2,6-dioxopiperidin-3-yl)-1-oxoisoindolin-5-yl)-2H-chromene-3-carboxamide]	15.2 ± 0.2	29.2 ± 0.5	83.9 ± 0.4	93.8 ± 0.1	68.4 ± 0.2	72.8 ± 0.1	good degradation activity	10.5 ± 1.7	12.2 ± 1.9											
N#Cc1ccc2cc(C(=O)Nc3ccc4c(c3)CN(C3CCC(=O)NC3=O)C4=O)ccc2c1 (stereo not shown) [DEG-91, 6-cyano-N-(2-(2,6-dioxopiperidin-3-yl)-1-oxoisoindolin-5-yl)-2-naphthamide]	8.5	14.4	89.4	95.3	74.6	80.3		9.7	11.5	20.6	96.6	7	81.2	2.6	> 100	14.8				
COc1ccc2cc(C(=O)Nc3ccc4c(c3)CN(C3CCC(=O)N(C)C3=O)C4=O)ccc2c1 (stereo not shown) [Me-DEG-35, 6-methoxy-N-(2-(1-methyl-2,6-dioxopiperidin-3-yl)-1-oxoisoindolin-5-yl)-2-naphthamide]																	limited activity	limited activity		
C[C@H](NC(=O)c1ccccc1)C(=O)Nc1ccc2c(c1)CN(C1CCC(=O)NC1=O)C2=O (stereo partly drawn) [DEG-98, N-((2S)-1-((2-(2,6-dioxopiperidin-3-yl)-1-oxoisoindolin-5-yl)amino)-1-oxopropan-2-yl)benzamide]	50.9	79.7	35.8	68.1	18.2	41.2		5.5	6.2	88	80.5	143	54.1	175	> 100	0			72	
O=C1CCC(N2Cc3cc(NC(=O)c4ccc(Oc5ccccc5)cc4)ccc3C2=O)C(=O)N1 (stereo not shown) [DEG-61, N-(2-(2,6-dioxopiperidin-3-yl)-1-oxoisoindolin-5-yl)-4-phenoxybenzamide]	5.2 ± 1	9.6 ± 0.5	78.4 ± 0.8	91.4 ± 0.1	60.9 ± 0.7	65.8 ± 1.2	good degradation activity	10.2 ± 2.8	16.9 ± 2.3											
CC(=O)N1CCC[C@H]1C(=O)Nc1ccc2c(c1)CN(C1CCC(=O)NC1=O)C2=O (stereo partly drawn) [DEG-96, (2S)-1-acetyl-N-(2-(2,6-dioxopiperidin-3-yl)-1-oxoisoindolin-5-yl)pyrrolidine-2-carboxamide]	3.6	5.0	21.4	57.0	9.2	26.3		8.6	10.1	8.3	79.5	340	40.3	503	> 100	14.2				
CSc1ccc2cc(C(=O)Nc3ccc4c(c3)CN(C3CCC(=O)NC3=O)C4=O)ccc2c1 (stereo not shown) [DEG-95, N-(2-(2,6-dioxopiperidin-3-yl)-1-oxoisoindolin-5-yl)-6-(methylthio)-2-naphthamide]	7.7	9.1	86.7	94.1	76.5	80.1		16.3	24.8	17.2	95.4	10.4	78.9	2.8	> 100	33.5				1190

Source: patent publication US20260021103A1, “IKZF2 AND CK1-ALPHA DEGRADING COMPOUNDS AND USES THEREOF” (President and Fellows of Harvard College, priority 2022, published 2026)
